In US20050059641A1, “Compositions and methods for treating and preventing cancer using analogs of vitamin D” (Aphios Corporation, priority 2003, published 2005):
“Also recorded” adds a separate entry of the source.

Tests used:
[1] = system: keratinocytes (primary cells); test: 3H-thymidine incorporation assay, keratinocytes; type: cell-based, human; conditions: 10^−6M
Description: (§1) It is well known that secretory epithelial cells are the main sites for the development of cancers of the breast, prostate and various other organs.
(§2) In a study, investigators compared the growth-inhibitory effects of 25-OH-D3-3-BE and 1,25(OH)2D3 in several VDR-positive epithelial cells, e.g. keratinocytes (primary skin cells), MCF-7 cells (breast cancer cells), hormone-sensitive LNCaP and hormone-refractory PC3 cells (prostate cancer cells), and PZ-HPV-7 (papillovirus immortalized normal prostate cells) by using ^3H-thymidine incorporation assays (FIGS. 14-19).

[2] = system: LNCaP cells (prostate cancer cells); test: 3H-thymidine incorporation assay, LNCaP; type: cell-based, human; conditions: 10^−6M
Experimental: The inventors further studied the effect of 1,25(OH)2D3-3-BE on LNCAP cells (most closely resembling human hormone-sensitive prostate cancer) and PZ-HPV-7 cells (immortalized normal prostate cells). The cells were treated with ethanol or 10^−6M of either 1,25(OH)2D3 or 1,25(OH)2D3-3-BE for 16 hours and the effect on proliferation was determined by ^3H-thymidine incorporation assays as described earlier. The viable cell count was determined by Methylene blue assay. The Methylene blue assay is a simple colorimetric method that is widely used to determine the viable cell count.
The inventors studied dose-dependency of antiproliferation and cytotoxicity by 1,25(OH)2D3 or 1,25(OH)2D3-3-BE in LNCaP cells. The cells were treated with 10^−8-10^−6M of either 1,25(OH)2D3 or 1,25(OH)2D3-3-BE or ethanol (used as a control). The effect on proliferation and viable cell count were determined by using ^3H-thymidine incorporation and Methylene blue assay respectively. […]
as §2

[3] = system: PC3 cells (prostate cancer cells); test: 3H-thymidine incorporation assay, PC3; type: cell-based, human; conditions: PC-3 cells, 10^−6M
Description: as §1, §2
Since 25-OH-D3-3-BE contains an ester bond, its hydrolysis by esterases in growing cells would produce equimolar amounts of bromoacetic acid (BAA) and 25-OH-D3 (see, FIG. 21).
Furthermore, fetal calf serum (FCS) contains many proteins, including vitamin D-binding protein, which potentially could absorb 25-OH-D3-3-BE before it reacts with VDR. Typically, the assays described herein were carried out in a media containing 10% FCS (after serum-depriving the cells for 15 hours).

[4] = system: caspase-8; test: Caspase Colorimetric assay, caspase-8; type: cell-based; conditions: PC3 cells, 10 nM, 14 hours
Experimental: Caspase-activity: There are several markers for apoptosis, and caspase activity is one of them; and their levels normally go up under apoptotic conditions. Investigators determined the levels of caspases 3, 8 and 9 by Caspase Colorimetric assay kits from R&D Systems (Minneapolis, Minn.) and used according to the manufacturer's instructions. Briefly, PC3 cells (1×10^6) were treated with 10 nM of 1,25(OH)2D3, 25-OH-D3 or 25-OH-D3-3-BE for 14 hours in culture medium (DMEM, 10% FBS and antibiotics). The cells were collected by centrifugation at 1000 RPM for 5 min. The cell pellet was lysed with lysis buffer, and the lysate was incubated on ice for 10 min. and centrifuged for 10,000 RPM for 5 min. Protein was estimated using Bradford protein estimation kit (BioRad). The enzymatic reactions were carried out in 96 well plate. For each reaction 100 μg lysate protein in 50 μl was incubated with 50 μl of 2×reaction buffer and 5 μl of caspase-3 or caspase-8 or caspase-9 calorimetric substrate for 2 h at 37° C. The absorbance was determined at 405 nm.

[5] = target: vitamin D receptor, VDR (Homo sapiens, UniProt P11473); test: cross-linking (affinity labeling) of the hormone-binding pocket of VDR; conditions: FIG. 13
Description: The present invention is directed, in part, to novel analogs of 1,25(OH)2D3, for example, 1,25(OH)2D3-3-BE and 25(OH)2D3-3-BE. The inventors have developed a novel affinity alkylating analog of 1,25(OH)2D3 which cross links 1,25(OH)2D3 to the hormone-binding pocket of VDR via a nucleophilic displacement reaction between a Cys residue in the hormone-binding pocket (Cys288) and a reactive bromoacetate group at the 3-position of 1,25(OH)2D3 (Ray R, Ray S., and Holick M. F. 1″,25-dihydroxyvitamin D3-3-deoxy-3$-bromoacetate, an affinity labeling analog of 1″,25-dihydroxyvitamin D3. (1994) Bioorg. Chem. 22 276-283; Ray R, Swamy N, MacDonald P N, Ray S, Haussler M R, and Holick M F. (1996) Affinity labeling of 1″,25-dihydroxyvitamin D3 receptor. J. Biol Chem 271 2012-2017; Swamy N, Kounine M, and Ray R. (1997) Identification of the subdomain in the nuclear receptor for the hormonal form of vitamin D3, 1″,25-dihydroxyvitamin D3, vitamin D receptor, that is covalently modified by an affinity labeling reagent. Arch Biochem Biophys 348 91-95; Chen M L, Ray S, Swamy N, Holick M F, and Ray R. Mechanistic studies to evaluate the enhanced anti-proliferation of human keratinocytes by 1α,25-dihydroxyvitamin D3-3-bromoacetate, a covalent modifier of vitamin D receptor, compared to 1α,25-dihydroxyvitamin D3. (1999) Arch. Biochem. Biophys. […]

Chain of vitamin D receptor, VDR (P11473 whole entry): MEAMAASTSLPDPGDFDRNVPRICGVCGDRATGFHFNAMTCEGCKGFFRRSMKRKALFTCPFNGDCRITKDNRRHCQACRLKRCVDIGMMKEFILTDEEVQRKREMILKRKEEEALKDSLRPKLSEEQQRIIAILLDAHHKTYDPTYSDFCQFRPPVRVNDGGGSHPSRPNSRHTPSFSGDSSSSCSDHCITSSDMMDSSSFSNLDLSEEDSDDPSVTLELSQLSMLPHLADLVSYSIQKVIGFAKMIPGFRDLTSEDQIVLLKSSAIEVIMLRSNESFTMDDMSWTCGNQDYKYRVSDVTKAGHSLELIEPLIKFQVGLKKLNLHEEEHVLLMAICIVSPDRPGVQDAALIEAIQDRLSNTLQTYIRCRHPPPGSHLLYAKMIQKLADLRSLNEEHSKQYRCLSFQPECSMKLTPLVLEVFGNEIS

C=C1CCC(OC(=O)CBr)CC1=CC=C1CCCC2(C)C1CCC2C(C)CCCC(C)(C)O (centres unmarked) [25-OH-D3-3-BE, 25-hydroxyvitamin D3-3-bromoacetate]
growth-inhibitory effect (3H-thymidine incorporation) [1]: antiproliferative
lethal to the cells [1]: not
growth-inhibitory effect (3H-thymidine incorporation) [2]: stronger antiproliferative agent than 1,25(OH)2D3
lethal to the cells [2]: lethal
growth-inhibitory effect (3H-thymidine incorporation) [3]: stronger antiproliferative agent than 1,25(OH)2D3
lethal to the cells [3]: lethal
Caspase-8 induction [4]: induced
cross-linking (labeling) of the hormone-binding pocket of VDR [5]: specifically cross-links to the hormone binding pocket of VDR; also recorded: specifically labels the hormone-binding pocket of VDR
